For assay [1], the target named is COX-1. Description: Evaluation of COX-1 activity in vitro (PGE2 ELISA, recombinant enzyme). The assay is classed as biochemical, human or murine. Conditions: arachidonic acid 10 μM, pH 8.0, pre-incubation 10-20 minutes. The procedure: (§1) a. Preparation of recombinant COX baculoviruses
(§2) Recombinant COX-1 and COX-2 were prepared as scribed by Gierse et al, [J. Biochem., 305, 479-84 (1995)]. […] Recombinant baculoviruses were isolated by transfecting 4 μg of baculovirus transfer vector DNA into SF9 insect cells (2×10^8) along with 200 ng of linearized baculovirus plasmid DNA by the calcium phosphate method. See M. D. Summers and G. E. Smith, A Manual of Methods for Baculovirus Vectors and Insect Cell Culture Procedures, Texas Agric. Exp. Station Bull. 1555 (1987). Recombinant viruses were purified by three rounds of plaque purification and high titer (10^7 -10^8 pfu/mL) stocks of virus were prepared. For large scale production, SF9 insect cells were infected in 10 liter fermentors (0.5×10^6 /mL) with the recombinant baculovirus stock such that the multiplicity of infection was 0.1. After 72 hours the cells were centrifuged and the cell pellet homogenized in Tris/Sucrose (50 mM: 25%, pH 8.0) containing 1% 3-[(3-cholamidopropyl)dimethylammonio]-1-propanesulfonate (CHAPS). The nomogenate was centrifuged at 10,000×G for 30 minutes, and the resultant supernatant was stored at -80° C. before being assayed for COX activity.
(§3) COX activity was assayed as PGE2 formed/μg protein/time using an ELISA to detect the prostaglandin released. CHAPS-solubilized insect cell membranes containing the appropriate COX enzyme were incubated in a potassium phosphate buffer (50 mM, pH 8.0) containing epinephrine, phenol, and heme with the addition of arachidonic acid (10 μM). […] Any reaction between the arachidonic acid and the enzyme was stopped after ten minutes at 37° C./room temperature by transferring 40 μl of reaction mix into 160 μl ELISA buffer and 25 μM indomethacin. The PGE2 formed was measured by standard ELISA technology (Cayman Chemical).

The target of assay [2] is COX-2. Nature of the assay: Evaluation of COX-2 activity in vitro (PGE2 ELISA, recombinant enzyme). The conditions noted are these: arachidonic acid 10 μM, pH 8.0, pre-incubation 10-20 minutes. The assay is classed as biochemical, human or murine. The procedure: The COX-2 inhibition activity of the compounds of this invention illustrated in the Examples was determined by the following methods.
as §1, §2, §3

Regarding `COc1ccc(-c2noc(CC(=O)O)c2-c2ccc(S(C)(=O)=O)cc2)cc1F` [Example 6, [3-[3-Fluoro-4-methoxyphenyl]-4-[4-(methylsulfonyl)phenyl]isoxazol-5-yl]acetic acid], the IC50 in assay [1] is greater than 100 µM; in assay [2], 35.7 µM.

Take `CCCCc1noc(-c2ccccc2)c1-c1ccc(S(N)(=O)=O)cc1` [Example 18, 4-[3-Butyl-5-phenylisoxazol-4-yl]benzenesulfonamide]: the IC50 in assay [1] is greater than 100 µM; in assay [2], 0.6 µM.

Take `CCc1noc(-c2ccccc2C)c1-c1ccc(S(N)(=O)=O)cc1` [Example 54, 4-[3-Ethyl-5-(2-methylphenyl)isoxazol-4-yl]benzenesulfonamide]: the IC50 in assay [1] was greater than 100 µM; in assay [2] it was 1.8 µM.

`Cc1onc(-c2ccc(F)cc2)c1-c1ccc(S(N)(=O)=O)cc1` [Example 4b, 4-[3-(4-fluorophenyl)-5-methyl-isoxazol-4-yl]benzenesulfonamide]: the values for the IC50 in assay [1] and in assay [2] were greater than 100 µM and less than 0.1 µM, respectively.

As for `CCCc1onc(-c2ccccc2)c1-c1ccc(S(N)(=O)=O)cc1` [Example 1b, 4-[5-propyl-3-phenylisoxazol-4-yl]benzenesulfonamide], the IC50 was 13.2 µM in assay [1] and less than 0.1 µM in assay [2].

In the case of `NS(=O)(=O)c1ccc(-c2c(CC(O)c3ccc(Cl)cc3)noc2-c2ccccc2)cc1` (centres unmarked) [Example 28, 4-[3-[2-(4-Chlorophenyl)-2-hydroxyethyl]-5-phenylisoxazol-4-yl]benzenesulfonamide], the IC50 is greater than 100 µM in assay [1] and 0.1 µM in assay [2].

As to `Cc1onc(-c2ccc(Cl)c(Cl)c2C(=O)O)c1-c1ccc(S(N)(=O)=O)cc1` [Example 68, 6-[4-[4-(aminosulfonyl)phenyl]-5-methylisoxazol-3-yl]-2,3-dichlorobenzoic acid], the IC50 in assay [1] was greater than 100 µM; in assay [2], 0.4 µM.

On to `CS(=O)(=O)c1ccc(-c2c(-c3ccccc3)noc2CC(=O)O)cc1` [Example 8, [4-[4-(methylsulfonyl)phenyl]-3-phenylisoxazol-5-yl]acetic acid], for which the IC50 in assay [1] and in assay [2] was greater than 100 µM each time.

As to `CCc1onc(-c2ccccc2)c1-c1ccc(S(N)(=O)=O)cc1` [Example 1a, 4-[5-ethyl-3-phenylisoxazol-4-yl]benzenesulfonamide], the IC50 in assay [1] was 17.4 µM; in assay [2], less than 0.1 µM.

Regarding `NS(=O)(=O)c1ccc(-c2c(-c3ccccc3)noc2Cc2ccc(Cl)cc2)cc1` [Example 1i, 4-[5-(4-chlorophenyl)methyl-3-phenylisoxazol-4-yl]benzenesulfonamide], the IC50 in assay [1] is 8.6 µM; in assay [2] it was less than 0.1 µM.

Take `NS(=O)(=O)c1ccc(-c2c(-c3ccccc3)noc2COCCO)cc1` [Example 60, 4-[5-(2-Hydroxyethyl)oxymethyl-3-phenylisoxazol-4-yl]benzenesulfonamide]: the IC50 is greater than 100 µM in assay [1] and 0.2 µM in assay [2].

As to `CC(C)(C)Cc1onc(-c2ccccc2)c1-c1ccc(S(N)(=O)=O)cc1` [Example 1g, 4-[5-neopentyl-3-phenylisoxazol-4-yl]benzenesulfonamide], the IC50 in assay [1] was greater than 100 µM; in assay [2], less than 0.1 µM.

Turning to `CSc1ccc(-c2noc(C)c2-c2ccncc2)cc1` [Example 40, [5-Methyl-3-(4-methylthiophenyl)isoxazol-4-yl]-4-pyridine], the 50% inhibitory concentration (IC50) was 2.3 µM in assay [1] and 91 µM in assay [2].

Regarding `Cc1onc(-c2ccc(Cl)cc2)c1-c1ccc(S(N)(=O)=O)cc1` [Example 4a, 4-[3-(4-chlorophenyl)-5-methyl-isoxazol-4-yl]benzenesulfonamide], the IC50 in assay [1] was 90.5 µM; in assay [2], less than 0.1 µM.

On to `Cc1onc(-c2ccccc2)c1-c1ccc(S(=O)(=O)O)cc1` [Example 1l, 4-[5-methyl-3-phenylisoxazol-4-yl]benzenesulfonic acid], for which the IC50 in assay [1] is greater than 100 µM; in assay [2], 1.5 µM.

As to `CCCCc1onc(-c2ccccc2)c1-c1ccc(S(N)(=O)=O)cc1` [Example 1d, 4-[5-butyl-3-phenylisoxazol-4-yl]benzenesulfonamide], the results for the IC50 in assay [1] and in assay [2] were 25.8 µM and less than 0.1 µM, respectively.

As for `NS(=O)(=O)c1ccc(-c2c(-c3ccccc3)noc2OS(=O)(=O)C(F)(F)F)cc1` [Example 39, 4-[5-Trifluoromethansulfonoxy-3-phenylisoxazol-4-yl]benzenesulfonamide], the 50% inhibitory concentration (IC50) is greater than 100 µM in assay [1] and 0.9 µM in assay [2].

For the compound `Cc1noc(-c2ccc(S(C)(=O)=O)cc2)c1-c1ccccc1` [Example 22, 3-Methyl-5-(4-methylsulfonylphenyl)-4-phenylisoxazole], the IC50 is greater than 100 µM in assay [1] and 5.3 µM in assay [2].

As for `COc1ccc(-c2noc(C(F)F)c2-c2ccc(S(N)(=O)=O)cc2)cc1` [Example 45, 4-[5-Difluoromethyl-3-(4-methoxyphenyl)isoxazol-4-yl]benzenesulfonamide], the IC50 in assay [1] was 16 µM; in assay [2] it was less than 0.1 µM.

For the compound `Cc1ccc(-c2onc(C)c2-c2ccc(S(N)(=O)=O)cc2)cc1` [Example 19, 4-[3-Methyl-5-(4-methylphenyl)isoxazol-4-yl]benzenesulfonamide], the half-inhibitory concentration (IC50) in assay [1] was greater than 100 µM; in assay [2] it was 8.7 µM.

Turning to `NS(=O)(=O)c1ccc(-c2c(-c3ccccc3)noc2COCC(=O)O)cc1` [Example 35, [[4-[4-(Aminosulfonyl)phenyl]-3-phenylisoxazol-5-yl]-methoxy]acetic acid], the figures for the 50% inhibitory concentration (IC50) in assay [1] and in assay [2] were greater than 100 µM and 5.1 µM, respectively.

Regarding `Cc1noc(-c2ccc(S(N)(=O)=O)cc2)c1-c1ccccc1` [Example 23, 4-[3-Methyl-4-phenylisoxazol-5-yl]benzenesulfonamide], the IC50 amounted to 56 µM in assay [1] and 0.2 µM in assay [2].

On to `Cc1onc(-c2ccc(S(N)(=O)=O)cc2)c1-c1ccccc1` [Example 41, 4-[5-Methyl-4-phenylisoxazol-3-yl]benzenesulfonamide], for which the IC50 in assay [1] came to 81 µM; in assay [2] it was 57.5 µM.

As for `CCCc1noc(-c2ccccc2)c1-c1ccc(S(N)(=O)=O)cc1` [Example 16, 4-[5-Phenyl-3-propylisoxazol-4-yl]benzenesulfonamide], the IC50 in assay [1] is greater than 100 µM; in assay [2], 3.1 µM.

Turning to `NS(=O)(=O)c1ccc(-c2c(-c3ccccc3)noc2CC(=O)C(F)(F)F)cc1` [Example 52, 4-[3-Phenyl-5-(3,3,3-trifluoro-2-oxopropyl)isoxazol-4-yl]benzenesulfonamide], the figures for the IC50 in assay [1] and in assay [2] were 93 µM and 0.2 µM, respectively.

Turning to `CCCc1onc(-c2ccccc2)c1-c1ccc(S(=O)(=O)O)cc1` [Example 1m, 4-[5-propyl-3-phenylisoxazol-4-yl]benzenesulfonic acid], the values for the IC50 in assay [1] and in assay [2] were greater than 100 µM and 51 µM, respectively.

Turning to `Cc1ccc(-c2noc(C)c2-c2ccc(S(N)(=O)=O)cc2)cc1F` [Example 4c, 4-[3-(3-fluoro-4-methylphenyl)-5-methyl-isoxazol-4-yl]benzenesulfonamide], the figures for the IC50 in assay [1] and in assay [2] were 66.5 µM and less than 0.1 µM, respectively.

Take `Cc1ccc(-c2noc(C(F)F)c2-c2ccc(S(N)(=O)=O)cc2)cc1` [Example 46, 4-[5-Difluoromethyl-3-(4-methylphenyl)isoxazol-4-yl]benzenesulfonamide]: the IC50 in assay [1] amounted to 100 µM; in assay [2], 0.5 µM.
